In ChEMBL document CHEMBL3232961, “Synthesis and evaluation of cyclohexane carboxylic acid head group containing isoxazole and thiazole analogs as DGAT1 inhibitors” (Eur J Med Chem, 2014):

Columns and labels:
[1] = biological target: T1, Diacylglycerol O-acyltransferase 1 (Homo sapiens, UniProt O75907); test: Inhibition of human DGAT1 using 1,2-diacylglycerol/[14C]-oleoyl CoA as substrate assessed as [14C]-triglyceride formation after 10 mins by scintillation counting analysis
T1 sequence (O75907 whole entry): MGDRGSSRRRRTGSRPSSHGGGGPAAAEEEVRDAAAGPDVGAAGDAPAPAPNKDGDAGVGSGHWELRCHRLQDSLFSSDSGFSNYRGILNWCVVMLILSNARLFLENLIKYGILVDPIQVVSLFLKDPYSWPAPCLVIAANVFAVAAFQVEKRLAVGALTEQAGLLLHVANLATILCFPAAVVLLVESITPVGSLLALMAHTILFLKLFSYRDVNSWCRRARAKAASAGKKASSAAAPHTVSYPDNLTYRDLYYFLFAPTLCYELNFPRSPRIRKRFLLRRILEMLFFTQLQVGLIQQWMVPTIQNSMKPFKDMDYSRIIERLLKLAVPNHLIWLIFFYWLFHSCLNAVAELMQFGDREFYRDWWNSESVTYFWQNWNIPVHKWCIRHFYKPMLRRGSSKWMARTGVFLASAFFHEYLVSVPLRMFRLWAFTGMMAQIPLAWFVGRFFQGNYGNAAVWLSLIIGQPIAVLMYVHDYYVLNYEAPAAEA

Mus musculus = test: Reduction of plasma triglyceride AUC (0 to 4 hrs) in fasted Swiss mouse at 3 mg/kg, po administered 1 hr followed by bolus dose of olive oil by acute fat tolerance test relative to vehicle-treated control; format: functional; set-up: scale not given: the % may be the effect or the level left

Row | IC50 [1] | Compound | Activity (Mus musculus)
1 | 114 nM | O=C(Nc1ccc(C2CCN(C(=O)[C@H]3CC[C@H](C(=O)O)CC3)CC2)cc1)c1nc(-c2ccccc2)oc1C(F)(F)F | 89%
2 |  | O=C(Nc1ccc(-c2cnc(C(=O)N[C@H]3CC[C@H](C(=O)O)CC3)s2)cc1)Nc1ccccc1F | 112%
